Reference: US11690818B2, “Drug containing liver targeting specific ligand and thyroid hormone receptor agonist” (priority 2018, dated 2023)

Tests used:
db/db mice [1] = assay: Example 4: bone mineral density and body weight of db/db mice; type: in vivo; conditions: Kylo-0100 13.5, Kylo-0101 48.4 μg/kg sc daily
Method: (§1) The mice needed to adapt to the environment before the experiment, and healthy mice were selected as test animals, and reared in IVC cages at a density of 5 animals/cage with the litter being changed twice a week.
The body weight was weighed twice a week, and the administration was carried out continuously for 21 days. […] The blood was collected by cardiac puncture, left to stand at room temperature for 2 hours, and centrifuged on a low temperature centrifuge at 3000 RPM for 10 minutes to collect serum, which was then stored in a −80° C. refrigerator for later use. The contents of total cholesterol (TC), low-density lipoprotein (LDL) and triglyceride (TG) in the serum were measured on a blood biochemical analyzer.
On the 18th day of the administration, the mice were intraperitoneally injected with the anesthetic (xylazine combined with ketamine, 10 ml/Kg, IP), and the bone mineral density and body fat ratio of the mice were measured on a bone density meter.

db/db mice [2] = assay: Example 4: serum TC, LDL and TG in db/db mice; type: in vivo; conditions: subcutaneous injection daily for 21 days, Kylo-0100 13.5, Kylo-0101 48.4, Kylo-0102 43.3, Kylo-0103 43.3 μg/kg, vs saline control group
Method: as §1
The body weight was weighed twice a week, and the administration was carried out continuously for 21 days. After the last administration, the mice were fasted overnight for 15-16 hours, sacrificed by CO2 anesthesia. The blood was collected by cardiac puncture, left to stand at room temperature for 2 hours, and centrifuged on a low temperature centrifuge at 3000 RPM for 10 minutes to collect serum, which was then stored in a −80° C. refrigerator for later use. The contents of total cholesterol (TC), low-density lipoprotein (LDL) and triglyceride (TG) in the serum were measured on a blood biochemical analyzer.

Structure (SMILES) | bone mineral density (BMD) (db/db mice [1]; 18th day of administration, vs saline control group) | effect on the body weight of mice (db/db mice [1]; 21 days) | serum TC level reduction rate (db/db mice [2]) [%] | serum TG level reduction rate (db/db mice [2]) [%] | serum LDL level reduction rate (db/db mice [2]) [%]
N[C@@H](Cc1cc(I)c(Oc2ccc(O)c(I)c2)c(I)c1)C(=O)O [Kylo-0100, triiodothyronine] | significantly lower than that of the saline control group | significant effect | 34.68 | 42.55 | 
CC(=O)NC1C(OCCCCC(=O)NCCCNC(=O)CCOCC(COCCC(=O)NCCCNC(=O)CCCCOC2OC(CO)C(O)C(O)C2NC(C)=O)(COCCC(=O)NCCCNC(=O)CCCCOC2OC(CO)C(O)C(O)C2NC(C)=O)NC(=O)CCCCCNC(=O)[C@H](Cc2cc(I)c(Oc3ccc(O)c(I)c3)c(I)c2)NC(=O)OC(C)(C)C)OC(CO)C(O)C1O (stereo partly shown) [Kylo-0103] |  |  | 44.37 | 43.94 | 15.25
